Here are results for six compounds from patent publication US8829030B2 (priority 2002, dated 2014).

Read-outs that look alike come from different tables or passages of the source. Some results are limits rather than exact numbers.

In the experiment the target is recombinant HCV RNA-dependent RNA polymerase (NS5B protein) (Hepatitis C virus genotype 1b, UniProt P26663). Nature of the experiment: biochemical. Also on record: species or system HCV-Bk strain.
The mark [1] stands for this setting: read-out: Activity (polymerase activity, IC50).

recombinant HCV RNA-dependent RNA polymerase (NS5B protein), sequence (P26663 2420-3010 limits assumed): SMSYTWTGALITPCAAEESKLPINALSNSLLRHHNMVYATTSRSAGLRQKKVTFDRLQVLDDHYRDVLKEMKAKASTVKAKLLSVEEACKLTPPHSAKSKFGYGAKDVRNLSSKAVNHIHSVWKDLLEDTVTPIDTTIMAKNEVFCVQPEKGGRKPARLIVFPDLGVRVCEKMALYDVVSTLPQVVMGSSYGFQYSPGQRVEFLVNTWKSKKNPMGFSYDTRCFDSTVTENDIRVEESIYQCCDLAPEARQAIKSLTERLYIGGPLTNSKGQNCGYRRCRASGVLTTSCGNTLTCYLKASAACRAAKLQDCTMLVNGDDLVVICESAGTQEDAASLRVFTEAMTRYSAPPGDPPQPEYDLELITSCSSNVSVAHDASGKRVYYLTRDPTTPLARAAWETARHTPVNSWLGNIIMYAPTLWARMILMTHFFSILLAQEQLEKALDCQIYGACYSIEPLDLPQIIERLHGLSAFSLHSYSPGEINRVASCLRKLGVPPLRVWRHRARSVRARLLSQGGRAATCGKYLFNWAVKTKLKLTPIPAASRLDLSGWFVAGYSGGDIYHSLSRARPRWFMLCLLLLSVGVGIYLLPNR

One may read the IC50 as the concentration at which inhibition is half-maximal. Consider `CC1CCC(C(=O)N(c2cc(-c3ccccc3)sc2C(=O)O)C2CCNC(=O)CC2)CC1` (stereo not drawn) [Compound 82, 3-[(4-methyl-cyclohexanecarbonyl)-(7-oxo-azepan-4-yl)-amino]-5-phenyl-thiophene-2-carboxylic acid], for which, under setting [1], the IC50 was under 5 µM.

Regarding `CC1CCC(C(=O)N(c2cc(-c3ccccc3)sc2C(=O)O)C2CCN(C(=O)C(N)=O)CC2)CC1` (stereo not drawn) [Compound 83, 3-[(1-aminooxalyl-piperidin-4-yl)-(4-methyl-cyclohexanecarbonyl)-amino]-5-phenyl-thiophene-2-carboxylic acid], the IC50 under setting [1] is under 5 µM.

On to `CCN(C(=O)c1ccc(C)cc1)c1cc(-c2ccccc2)sc1C(=O)O` [Compound 84, 3-[ethyl-(4-methyl-benzoyl)-amino]-5-phenyl-thiophene-2-carboxylic acid], for which the IC50 is under 5 µM.

Consider `CC(=O)c1ccc(-c2cc(N(C(=O)[C@H]3CC[C@H](C)CC3)[C@H]3CC[C@H](O)CC3)c(C(=O)O)s2)cc1` [Compound 85, 5-(4-acetyl-phenyl)-3-[(4-hydroxy-cyclohexyl)-(4-methyl-cyclohexanecarbonyl)-amino]-thiophene-2-carboxylic acid], for which the IC50 was under 5 µM.

Consider `C[C@H]1CC[C@H](C(=O)N(c2cc(-c3ccccc3)sc2C(=O)O)[C@H]2CC[C@](C)(O)CC2)CC1` [Compound 88, 3-[(4-hydroxy-4-methyl-cyclohexyl)-(4-methyl-cyclohexanecarbonyl)-amino]-5-phenyl-thiophene-2-carboxylic acid], for which the IC50 was under 5 µM.

Consider `C[C@H]1CC[C@H](C(=O)N(c2cc(-c3ccccc3)sc2C(=O)O)[C@H]2CC[C@H](O)C2)CC1` [Compound 90, 3-[(3-hydroxy-cyclopentyl)-(4-methyl-cyclohexanecarbonyl)-amino]-5-phenyl-thiophe-2-carboxylic acid], for which the 50% inhibitory concentration (IC50) was under 5 µM.
